Tests used:
Assay type in all cases: cell-based
IL-1β = experiment: Anti-inflammatory potential: IL-1β ELISA in keratinocytes stimulated with PMA
Procedure: Keratinocytes were inoculated in KGM2 medium. After 24 hours of incubation, the cells were pre-treated with 0.2% (dry matter) arabinogalactan for 24 hours. Next, the cells were stimulated by adding 10 μg/ml PMA (phorbol-12-myristate-13-acetate; Sigma) for 16 hours, in order to mimic inflammation.
At the end of the treatment, the cell supernatants were collected and IL-1β was assayed using ELISA kits (R&D Systems).
On the cell layers, a neutral red assay was carried out: optical density, proportional to the quantity of living cells, is read at 540 nm.
The quantity of IL-1β is expressed by living cells according to the formula: OD ELISA IL-1β/OD540.
(§1) The significance of the results was evaluated by a Student's t-test: *p<0.05, **p<0.01.

collagen I gene = experiment: Preventive effect on collagen I gene expression in fibroblasts treated with hydrocortisone (hormonal environment)
Description: (§2) The quantitative real-time polymerase chain reaction (qRT-PCR) is a method that makes it possible to measure in a specific and quantitative way the expression of genes of interest by amplification. Quantification is based on the real-time monitoring of gene amplification using SYBR Green as a reporter system. SYBR Green is a molecule with fluorescent properties which is intercalated in double-stranded DNA. […]
(§3) The quantities of DNA are compared in the exponential part, the time during which the increase in the quantity of DNA is proportional to the initial quantity of the matrix. […]
(§4) At the end of the treatment of the cells, total RNA was extracted (RNeasy MiniKit) and then assayed quantitatively in chips using the Experion system (Experion RNA StdSens kit). […]
(§5) Expression of the genes of reference is analyzed in the same samples as those for which the expression of the genes of interest is evaluated in order to normalize the results.
(§6) Variation in the number of copies of the gene of interest during the treatment is then calculated according to the following formula: ΔΔCt=ΔCtcontrol−ΔCttreatment
(§7) Finally, the relative quantity or level of expression of the genes of interest normalized by the level of expression of the reference genes in the untreated and treated samples is obtained by the formula RQ=2^ΔΔCt.
as §1

[1] = system: gene coding for collagen type I; experiment: Gene expression of collagen I in normal fibroblasts by quantitative real-time PCR; conditions: 48-hour treatment, normalized to GAPDH, 0.2% arabinogalactan or 5 ng/ml TGF-β1
Description: as §2, §3, §4, §5, §6, §7, §1

collagen type III gene = experiment: Gene expression of collagen III in normal fibroblasts by quantitative real-time PCR; conditions: 48 hours of treatment, 0.2% dry matter arabinogalactan or 5 ng/ml TGF-β1
Description: as §2, §3, §4, §5, §6, §7, §1

[2] = system: normal human keratinocytes; experiment: Prerequisite cutaneous tolerance: pro-inflammatory potential, interleukins 1 and 8 and TNF-α assayed in the cell supernatant; conditions: 0.2% dry matter
Procedure: A. Prerequisite Cutaneous Tolerance • Inflammation: The pro-inflammatory potential of arabinogalactan was evaluated on normal human keratinocytes. Interleukins 1 and 8 as well as TNF-α, early mediators of inflammation, were assayed in the cell supernatant.

fibroblasts = experiment: Study of fibroblast proliferation by the MTT method; conditions: 0.2% arabinogalactan, 48 hours of treatment
Procedure: The MTT [3-(4,5-dimethylthiazol-2-yl)-2,5-diphenyltetrazolium bromide] assay is a colorimetric test which measures cell viability. MTT is a yellow water-soluble tetrazolium salt; metabolically active cells are capable of reducing it into formazan blue crystals.
At D0, the fibroblasts are inoculated in RPMI medium with 1% FCS.
At D1, the cells are treated with RPMI with 10% FCS (positive control) or with 0.2% arabinogalactan for 48 hours.
At the end of the treatment, cell viability is quantified by an MTT assay: after 3 hours of contact with MTT, the formazan crystals formed are solubilized by DMSO and the optical density, proportional to the quantity of metabolically active and thus living cells, is read at 570 nm against the blank (without cells).
as §1

CCCCCCCCCCCCCC(=O)O[C@@H]1[C@@H](C)[C@@]2(O)[C@@H](C=C(CO)C[C@]3(O)C(=O)C(C)=C[C@@H]23)[C@@H]2C(C)(C)[C@]12OC(C)=O [PMA, phorbol-12-myristate-13-acetate, reference compound]
salting out of IL-1β under stress (IL-1β; keratinocytes, 10 μg/ml PMA 16 hours): massively salt-out IL-1β

C[C@]12CCC(=O)C=C1CC[C@@H]1[C@@H]2[C@@H](O)C[C@@]2(C)[C@H]1CC[C@]2(O)C(=O)CO [hydrocortisone, reference compound]
inhibition of expression of the collagen I gene (collagen I gene; fibroblasts, 50 μM hydrocortisone, 48 hours of treatment): 57%

TGF-β: growth factor with a strong capacity to induce molecules of the extracellular matrix; used as a positive control [reference compound]
increase of expression of the gene coding for collagen type I [1]: +223%
increase of expression of the collagen type III gene (collagen type III gene): 147%

arabinogalactan
increase of expression of collagen I in the presence of hydrocortisone (collagen I gene; fibroblasts pretreated 24 hours with 0.2% arabinogalactan, then arabinogalactan + 50 μM hydrocortisone 48 hours): 37%
pro-inflammatory potential [2]: not pro-inflammatory
salting out of interleukins 1 and 8 or TNF-α ([2]; cell supernatant): does not lead to salting out of interleukins 1 and 8 or TNF-α
increase of expression of the gene coding for collagen type I [1]: +38%
inhibition of salting out of IL-1β (OD ELISA/OD540) (IL-1β; keratinocytes pretreated 24 hours with 0.2% dry matter arabinogalactan, then 10 μg/ml PMA 16 hours): −21%
fibroblast proliferation / cell regeneration (MTT, OD570) (fibroblasts): +20%
increase of expression of the collagen type III gene (collagen type III gene): +81%

Reference: patent US8765198B2, “Anti-stretch mark active agent, and compositions containing same” (Laboratoires Expanscience, priority 2008, dated 2014)
